Patent US11608313B2, “Adamantylmethylamine derivative and use thereof as pharmaceutical” (TOHOKU UNIVERSITY, priority 2017, dated 2023)

Key:
[1] = tested on: olfactory bulbectomized mice (OBX mice); assay: Cognitive function in olfactory bulbectomized mice (Y-maze, novel object recognition and other tests); assay type: in vivo; conditions: chronic oral treatment for 2 weeks
Procedure: The same experiment as in Test Example 4 was carried out using olfactory bulbectomized mice (OBX mice) as a neurodegenerative disease model. […] The OBX mice were prepared from 10-week-old DDY male mice (Nippon SLC, Hamamatsu, Japan). Olfactory bulbectomy surgery was carried out under anesthesia with pentobarbital sodium (50 mg/kg i.p.; Dainippon, Osaka, Japan). The mice were fixed on a stereotaxic apparatus to drill a 1 mm diameter hole in the skull above the olfactory bulb. The olfactory bulb was aspirated without causing damage to the prefrontal cortex. A sham group was prepared by the same procedure as that for the OBX group, without aspiration of olfactory bulb. One week was allowed for recovery from surgery, and behavioral analyses were performed on the day following the treatment with the test compound for 14 days (2 weeks).
The same model mice as described above were orally treated with a single dose of each of the test compounds (1 mg/kg), and analyzed after 1 hour by Y-maze test and novel object recognition test. The results are shown in FIGS. 22-3 and 22-4 (Y-maze test), and FIG. 22-5 (novel object recognition test).

[2] = tested on: Kir6.2 channel-deficient mice; assay: Behavioral tests and LTP evaluation in Kir6.2 channel-deficient mice; assay type: in vivo; conditions: Kir6.2-deficient mice, chronic treatment two months
Procedure: In order to confirm that TP-014 acts to inhibit Kir6.2 channels, Kir6.2 channel-deficient mice were analyzed by the same behavioral tests as in Test Example 4 (FIGS. 8-1 and 8-2: Y-maze test; FIG. 8-3: new object recognition test; FIG. 8-4: fear conditioning test; FIGS. 8-5 to FIG. 8-7: LTP improvement evaluation; n=5 per group) to identify the action site of TP-014. The results shown in FIGS. 8-1 to 8-7 confirmed that cognitive function impairment was induced in the Kir6.2-deficient mice. […] The analysis methods were the same as in Test Examples 4 to 7. Kir6.2-deficient mice were obtained from Professor Susumu Seino, School of Medicine of Kobe University (Miki T., et al., Proc. Natl. Acad. Sci. U.S.A. 1998, 95, 10402-10406).

APP23 mice [3] = assay: Electrophysiological test of long-term potentiation (LTP) in hippocampal slices of APP23 mice; assay type: in vivo; conditions: APP23 mice chronically treated
[4] = tested on: Kir6.2 channel-overexpressing cells; assay: Calcium imaging in Kir6.2 channel-overexpressing cells; assay type: cell-based
Procedure: The same Kir6.2 channel-overexpressing cells as used in Test Example 1 were used to measure, by calcium imaging, the levels of calcium entering the cells after TP-014 treatment. The calcium imaging is a method in which cultured nerve cells are treated with a culture medium supplemented with a calcium fluorescent dye (Fura2, produced by Dojindo Laboratories) to a concentration of 4 μM, and measured for the levels of calcium based on fluorescence intensity. The imaging was carried out using an imaging apparatus (LAMBDA 10-2, produced by Sutter Instrument) in accordance with the attached manual.

CaMKII [5] = assay: Protein phosphorylation in hippocampus of APP23 mice (immunoblotting); assay type: in vivo; conditions: APP23 mice chronically treated orally, 1 mg/kg, two months
Description: Hippocampus samples were excised from APP23 mice, and hippocampal slices were suspended in an SDS sample buffer and analyzed for protein phosphorylation by immunoblotting using antibodies against CaMKII, CaMKIV and ERK (CaMKII: Fukunaga, et al., J. Biol. Chem. 1992, 267, 22527-22533; CaMKIV: Kasahara, et al., J. Biol. Chem. 2001, 276, 24044-24050; ERK: produced by Sigma-Aldrich). CaMKII, CaMKIV and ERK are all considered as molecules playing an important role in memory formation.

[6] = tested on: Kir6.1-deficient mice treated with corticosterone; assay: Anxiety-related behavioral tests in corticosterone-treated Kir6.1-deficient mice; assay type: in vivo; conditions: TP-014 treatment 2 weeks
Procedure: Wild-type mice (C57BL/6J, Japan SLC, two month-old) treated with corticosterone (at a dose of 5 mg/kg once a day for 2 weeks) and Kir6.1-deficient mice treated with corticosterone were used as disease models showing anxiety-like symptoms, to perform five behavioral tests regarding anxiety-related behaviors. The Kir6.1-deficient mice were obtained from Professor Susumu Seino, School of Medicine of Kobe University (Miki T., et al., Nature Medicine 2002, 8, 466-472).
The results of all the tests described above confirmed that chronic treatment with TP-014 (for 2 weeks) ameliorates exacerbated anxiety-like symptoms.

APP23 mice [7] = assay: Fear conditioning test in APP23 mice; assay type: in vivo; conditions: treated for two months
Description: The fear conditioning test is an analysis method that takes advantage of the characteristic preference of mice for a dark place over a bright place. On day 1, a mouse is placed in a bright place. The mouse, which prefers darkness, enters a dark place (dark box), but then electrical simulation is delivered to the mouse. The mouse is surprised, returns to the bright place, and never enters the dark place. On day 2, the mouse is placed again in the bright place (the same place as on day 1) and observed for 5 minutes to see whether the mouse enters a dark place. If the mouse immediately enters the dark place, it is determined that the mouse experiences a decline in fear memory. “Latency” refers to the number of seconds until the mouse placed in the bright place on day 2 enters a dark place.

[8] = tested on: Alzheimer's disease model mice (APP23 mice); assay: Cognitive function in Alzheimer's disease model mice (Test Example 4); assay type: in vivo; conditions: APP23 mice 12 month-old, 1 mg/kg orally once a day for two months
Description: The test compound was orally administered in a dissolved state in a 0.5% aqueous solution of carboxymethyl cellulose (vehicle) (the same applies hereunder).

CaMKII [9] = assay: CaMKII activation in hippocampus of Kir6.2-deficient mice (immunoblotting); assay type: in vivo; conditions: chronic treatment
Description: By following the same procedure as in Test Examples 4 to 7, hippocampal slices were suspended in an SDS sample buffer and analyzed by immunoblotting for GluAl (Ser-831), which is known as a molecule that is activated by activation of CaMKII and CaMKIV, to thereby investigate the intracellular mechanism of cognitive function impairment in Kir6.2-deficient mice. The results are shown in FIGS. 9-1 and 9-2 (FIG. 9-1: band images obtained by immunoblotting; FIG. 9-2: results of quantification of the signal intensity of bands). In the hippocampus of the Kir6.2-deficient mice, increased CaMKII activation was seen and no effect was found of chronic treatment with TP-014.

ob/ob mice = assay: Blood glucose levels in ob/ob mice; assay type: in vivo; conditions: chronic treatment 1 mg/kg for 4 weeks, on and after week 3
Procedure: In order to determine the hypoglycemic effect of TP-014, ob/ob mice were measured for blood glucose levels using an assay kit (produced by Technicon International Inc.). The measurement was taken for 4 weeks, and chronic treatment with TP-014 (1 mg/kg) was continued for 4 weeks. […] Tolbutamide was used as a control drug. Kir6.2 channels bind to SUR1 ([…]) on the cell membrane to form channels. The mechanism of action is considered to be inhibition of Kir6.2 channels. Tolbutamide inhibits Kir6.2 channels by binding to SUR1.

SMILES: O=C(N[C@@H](c1ccccc1)[C@H]1[C@H]2C[C@@H]3C[C@](Cl)(C2)C[C@@]1(OC(=O)C(F)(F)F)C3)C(F)(F)F [TP-014, (1S,2R,3S,5S,7S)-5-chloro-2-((R)-phenyl(2,2,2-trifluoroacetamido)methyl)adamantan-1-yl 2,2,2-trifluoroacetate]
- cognitive function impairment [1]: significantly improved
- memory impairment and LTP attenuation [2]: not improved
- LTP (percent increase in the excitability of nerve cells) (APP23 mice [3]): improved
- intracellular calcium levels ([4]; 1-100 nM, 4 minutes after treatment, Kir6.2 channel-overexpressing cells): significantly increased
- potency to enhance calcium levels compared with memantine ([4]; TP-014 1-100 nM vs memantine 100 nM): more potent to enhance calcium levels than memantine
- CaMKII phosphorylation in hippocampus (CaMKII [5]): increased CaMKII phosphorylation
- anxiety-like symptoms [6]: no ameliorating effect was observed
- fear memory (latency, fear conditioning test) (APP23 mice [7]): improvement in fear memory
- cognitive function enhancing effect [8]: significant cognitive function enhancing effect
- CaMKII activation in hippocampus (CaMKII [9]): no effect
- blood glucose levels (ob/ob mice): significantly decreased
